Biological target: T1, hPXR (Homo sapiens, UniProt O75469)
T1 construct: expressed in transfected cells; provided by Dr. Taosheng Chen, St. Jude
T1 sequence (O75469 1-434): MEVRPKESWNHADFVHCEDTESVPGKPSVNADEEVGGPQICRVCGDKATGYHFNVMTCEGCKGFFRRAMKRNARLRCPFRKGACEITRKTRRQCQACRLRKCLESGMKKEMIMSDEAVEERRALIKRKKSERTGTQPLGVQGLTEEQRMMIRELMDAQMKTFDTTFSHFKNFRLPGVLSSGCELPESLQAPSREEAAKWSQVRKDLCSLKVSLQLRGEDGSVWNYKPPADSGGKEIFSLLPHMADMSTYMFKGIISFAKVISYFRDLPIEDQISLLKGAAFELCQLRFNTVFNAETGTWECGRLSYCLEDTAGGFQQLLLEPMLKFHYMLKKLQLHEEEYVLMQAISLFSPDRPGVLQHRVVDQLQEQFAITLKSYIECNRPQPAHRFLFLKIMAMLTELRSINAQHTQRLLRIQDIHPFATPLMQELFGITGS
Assay: PXR luciferase reporter gene assay (qHTS antagonist mode, rifampicin co-treatment) in HepG2-CYP3A4-hPXR cells
Type: cell-based
Settings: 2 μM rifampicin, used as treatment concentration in HepaRG cells
Procedure: HepG2 cells stably transfected with a CYP3A4-luc promoter construct and hPXR expression plasmid were provided by Dr. Taosheng Chen (Department of Chemical Biology and Therapeutics, St. Jude Children’s Research Hospital) ([Lin et al., 2008]). Cells were thawed in EMEM (ATCC, Rockville, Maryland), supplemented with 10% Hyclone FBS (GE Healthcare Life Sciences, Logan, Utah) and 100 U/mL of Penicillin and 100 μg/mL of Streptomycin (Invitrogen, Carlsbad, CA) and kept in an incubator at 37°C and 5% CO2. To culture these HepG2-CYP3A4-hPXR cells, 500 μg/mL of Geneticin (GIBCO, Gaithersburg, MD) was added to the thawing media.
HepG2-CYP3A4-hPXR cells were dispensed into tissue culture treated 1536-well white assay plates (Greiner Bio-One North America, Monroe, NC) using a Multidrop Combi (Thermo Fisher Scientific Inc., Waltham, Massachusetts) at 2,500 cells/4 µL/well. The cell suspension was prepared using new assay media, which contained phenol red-free DMEM (GIBCO), 5% charcoal/dextran-treated FBS (Invitrogen), 1 mM sodium pyruvate (Invitrogen), 2 mM L-Glutamine (Invitrogen), and 100 U/mL of Penicillin and 100 μg/mL of Streptomycin (Invitrogen). All plates were then incubated for 4 h in a 37°C and 5% CO2 incubator. […] In the primary screen, each compound was tested at 7 concentrations ranging from 46 μM to 1.5 nM. 1 μL of rifampicin, a known PXR agonist, was also co-treated in each well, generating a final concentration of 2 μM, using a Flying Reagent Dispenser (Aurora Discovery, Carlsbad, California). All assay plates were placed in an incubator at 37°C with 5% CO2 for 23 h. Following the incubation period, 1 µL of CellTiter-Fluor reagent (Promega, Madison, Wisconsin) was added to each well and all assay plates were placed back into the incubator set at 37°C and 5% CO2 for 1 h. Fluorescence intensity at 540 nm was measured following excitation at 405 nm using a ViewLux plate reader (Perkin Elmer, Shelton, Connecticut), in order to assess cell viability following treatment. Directly after the fluorescent read, 4 μL of ONE-Glo Luciferase reagent (Promega, Madison, Wisconsin) was added to each well using a Flying Reagent Dispenser, and plates were left to sit at room temperature for 30 min. The luminescence of each plate was then measured using the ViewLux plate reader and data were expressed as relative luminescence units. Gross assay performance was assessed by calculating quality metrics, such as coefficient of variance (CV), signal-to-background ratio (S/B), and Z′ factor, a measure of statistical effect size frequently used to judge whether an assay can be scaled up to a large high-throughput screen ([Zhang et al., 1999]).
Data analysis was completed using a previously described protocol ([Huang et al., 2016]). […] Normalized percent activity for all test compounds was determined using the following equation: % activity = [(V compound - V DMSO)/(V DMSO–V pos)] × 100, where V compound denotes the compound well values, V pos denotes the median value of the positive control wells, and V DMSO denotes the median value of the DMSO-only wells. Following normalization, data points were corrected using DMSO-only plates included at the beginning and end of the compound plate stack using an in-house pattern correction algorithm in order to remove background patterns, as well as other small abnormalities within the dataset ([Southall et al., 2009]). […] Efficacy is then [a inf - a 0 ]. a=a0+ainf−a0 c^n/k^n+c^n
Curve class was further converted to curve rank by combining each class with efficacy, such that good quality, efficacious curves are assigned large absolute curve rank values. […] The activity outcome was based on the PXR antagonist readout activity and a cell viability counter screen.

| Structure (SMILES) | IC70 values from the original NPACT screen [µM] |
| --- | --- |
| COc1cc(-c2cn(C3CCc4c(F)cccc4N(CC(F)(F)F)C3=O)nn2)ccc1-n1cnc(C)c1 (centres unmarked) [GSM2] | 4 |
| CC(=O)O[C@H]1C[C@@]2(C)[C@@H](C[C@@H](O)[C@H]3[C@@]4(C)CC[C@@H](O)[C@@H](C)[C@@H]4CC[C@@]32C)/C1=C(\CCC=C(C)C)C(=O)O [fusidic acid] | 5 |

From publication PMC11537999, “Identification of human pregnane X receptor antagonists utilizing a high-throughput screening platform” (Frontiers in Pharmacology, 2024)
